Experimental data from ChEMBL document CHEMBL1201862, “PubChem BioAssay data set” (2004).
Several values for one entry are separate records, joined by “and”; a condition that tells them apart may be missing. Identical values can stand only once.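 Cultured in 96-well plates, cells were exposed to test compound for 48 hours across five concentrations. GI50 is the concentration that inhibits growth by half.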 Activity calls are given as the source filed them. No stated cut-off is given here; in the data, active = GI50 up to about 1.1 µM and inactive = higher.

Assays:
Assay in all cases: NCI-60 cell line screen, 48 h
786-0 = tested on: 786-0
A498 = tested on: A498
A549 = tested on: A549
CCRF-CEM = tested on: CCRF-CEM
HCT-116 = tested on: HCT-116
HL-60 = tested on: HL-60
Hs-578T = tested on: Hs-578T
K562 = tested on: K562
LOX IMVI = tested on: LOX IMVI
MOLT-4 = tested on: MOLT-4
Malme-3M = tested on: Malme-3M
NCI-H23 = tested on: NCI-H23
RXF 393 = tested on: RXF 393
SF-268 = tested on: SF-268
SK-MEL-28 = tested on: SK-MEL-28
SK-MEL-5 = tested on: SK-MEL-5
SK-OV-3 = tested on: SK-OV-3
UO-31 = tested on: UO-31
SF-539 = tested on: SF-539

COc1cc(/C=C/c2nc(N)nnc2C)cc(OC)c1OC
GI50 (786-0): 21.5 µM (inactive)
GI50 (A498): 18 µM (inactive)
GI50 (A549): 20.3 µM (inactive)
GI50 (CCRF-CEM): 6 µM (inactive)
GI50 (HCT-116): 9.89 µM (inactive)
GI50 (HL-60): 3.03 µM (inactive)
GI50 (Hs-578T): 11.9 µM (inactive)
GI50 (K562): 15.5 µM (inactive)
GI50 (LOX IMVI): 7.31 µM (inactive)
GI50 (MOLT-4): 38.8 µM (inactive)
GI50 (Malme-3M): 13.6 µM (inactive)
GI50 (NCI-H23): 13.9 µM (inactive)
GI50 (RXF 393): 22.9 µM (inactive)
GI50 (SF-268): 21.5 µM (inactive)
GI50 (SK-MEL-28): 30.1 µM (inactive)
GI50 (SK-MEL-5): 14.1 µM (inactive)
GI50 (SK-OV-3): 31.5 µM (inactive)
GI50 (UO-31): 4.71 µM (inactive)

ClCCCc1ccccc1C1=NCCc2ccccc21
GI50 (786-0): > 100 µM (inactive)
GI50 (A498): > 100 µM (inactive)
GI50 (A549): 54.2 µM (inactive)
GI50 (CCRF-CEM): > 100 µM (inactive)
GI50 (HCT-116): 42.4 µM (inactive)
GI50 (HL-60): 23.5 µM (inactive)
GI50 (Hs-578T): 31.7 µM (inactive)
GI50 (K562): 13.7 µM (inactive)
GI50 (MOLT-4): 82.4 µM (inactive)
GI50 (NCI-H23): 15.8 µM (inactive)
GI50 (RXF 393): > 100 µM (inactive)
GI50 (SF-268): 49.7 µM (inactive)
GI50 (SF-539): > 100 µM (inactive)
GI50 (SK-MEL-28): > 100 µM (inactive)
GI50 (SK-MEL-5): 9.73 µM (inactive)
GI50 (SK-OV-3): > 100 µM (inactive)
GI50 (UO-31): > 100 µM (inactive)

CC(C)(O)c1cc2c(cc1C(C)(C)O)-c1ccccc1-2
GI50 (786-0): 79.8 µM (inactive)
GI50 (A498): > 100 µM (inactive)
GI50 (A549): > 100 µM (inactive)
GI50 (CCRF-CEM): > 100 µM (inactive)
GI50 (HL-60): > 100 µM (inactive)
GI50 (Hs-578T): 29.6 µM (inactive)
GI50 (K562): > 100 µM (inactive)
GI50 (LOX IMVI): > 100 µM (inactive)
GI50 (MOLT-4): > 100 µM (inactive)
GI50 (Malme-3M): > 100 µM (inactive)
GI50 (RXF 393): 71.9 µM (inactive)
GI50 (SF-268): 43.8 µM (inactive)
GI50 (SF-539): > 100 µM (inactive)
GI50 (SK-MEL-28): > 100 µM (inactive)
GI50 (SK-MEL-5): > 100 µM (inactive)

O=C(N/N=C\c1ccc([N+](=O)[O-])cc1)Nc1ccc2ccccc2c1
GI50 (786-0): 17.2 µM (inactive)
GI50 (A498): 24.2 µM (inactive)
GI50 (A549): 43.8 µM (inactive)
GI50 (CCRF-CEM): 35.3 µM (inactive)
GI50 (HCT-116): 24.3 µM (inactive)
GI50 (Hs-578T): 26 µM (inactive)
GI50 (K562): 73.6 µM (inactive)
GI50 (LOX IMVI): 69.7 µM (inactive)
GI50 (MOLT-4): > 100 µM (inactive)
GI50 (Malme-3M): 22.5 µM (inactive)
GI50 (NCI-H23): 58.3 µM (inactive)
GI50 (RXF 393): > 100 µM (inactive)
GI50 (SF-268): 35.1 µM (inactive)
GI50 (SF-539): 20.7 µM (inactive)
GI50 (SK-MEL-28): 46.5 µM (inactive)
GI50 (SK-MEL-5): 77.3 µM (inactive)
GI50 (SK-OV-3): 31.4 µM (inactive)
GI50 (UO-31): 82.4 µM (inactive)

CCN(CC)/N=N/c1c(C(N)=O)n[nH]c1C
GI50 (786-0): 29.6 µM (inactive)
GI50 (A498): > 100 µM (inactive)
GI50 (A549): 69 µM (inactive)
GI50 (CCRF-CEM): 18.3 µM (inactive)
GI50 (HCT-116): > 100 µM (inactive)
GI50 (Hs-578T): 45.9 µM (inactive)
GI50 (LOX IMVI): 28.6 µM (inactive)
GI50 (Malme-3M): 64.3 µM (inactive)
GI50 (NCI-H23): 36.9 µM (inactive)
GI50 (RXF 393): > 100 µM (inactive)
GI50 (SF-268): 39.3 µM (inactive)
GI50 (SF-539): 29.5 µM (inactive)
GI50 (SK-MEL-28): > 100 µM (inactive)
GI50 (SK-MEL-5): 33.7 µM (inactive)
GI50 (SK-OV-3): 22.1 µM (inactive)
GI50 (UO-31): 20.7 µM (inactive)

COc1ccc(-c2nc(-c3ccc(OC)cc3)n(-c3ccccc3)n2)cc1
GI50 (786-0): > 100 µM (inactive)
GI50 (A498): 45.7 µM (inactive)
GI50 (A549): 56.6 µM (inactive)
GI50 (CCRF-CEM): > 100 µM (inactive)
GI50 (HCT-116): > 100 µM (inactive)
GI50 (HL-60): 30.5 µM (inactive)
GI50 (Hs-578T): > 100 µM (inactive)
GI50 (LOX IMVI): 41.1 µM (inactive)
GI50 (MOLT-4): 16.1 µM (inactive)
GI50 (NCI-H23): 39.4 µM (inactive)
GI50 (RXF 393): 32.8 µM (inactive)
GI50 (SF-268): > 100 µM (inactive)
GI50 (SF-539): > 100 µM (inactive)
GI50 (SK-MEL-28): > 100 µM (inactive)
GI50 (SK-MEL-5): 54.1 µM (inactive)
GI50 (SK-OV-3): > 100 µM (inactive)
GI50 (UO-31): 21.6 µM (inactive)

COc1cc2c[n+](C)c3c4ccccc4ccc3c2cc1OC
GI50 (786-0): 8.65 µM (inactive)
GI50 (A498): 37.4 µM (inactive)
GI50 (A549): 0.845 µM (active)
GI50 (CCRF-CEM): 6.5 µM (inactive)
GI50 (HCT-116): 3.95 µM (inactive)
GI50 (Hs-578T): 2.51 µM (inactive)
GI50 (K562): 1.4 µM (inactive)
GI50 (LOX IMVI): 12.9 µM (inactive)
GI50 (MOLT-4): 0.422 µM (active)
GI50 (Malme-3M): 1.55 µM (inactive)
GI50 (NCI-H23): 2.6 µM (inactive)
GI50 (RXF 393): 14.6 µM (inactive)
GI50 (SF-268): 0.224 µM (active)
GI50 (SF-539): 6.17 µM (inactive)
GI50 (SK-MEL-28): 3.42 µM (inactive)
GI50 (SK-MEL-5): 2.87 µM (inactive)
GI50 (SK-OV-3): 6.08 µM (inactive)
GI50 (UO-31): > 75.5 µM (inactive)

COc1cc2c(cc1OC)C1Cc3cc(OC)c(OC)cc3C(C2)N1C
GI50 (786-0): > 75 µM (inactive)
GI50 (A498): > 75 µM (inactive)
GI50 (A549): > 100 µM (inactive)
GI50 (HCT-116): 26.9 µM (inactive)
GI50 (HL-60): 14.9 µM (inactive)
GI50 (Hs-578T): > 75 µM (inactive)
GI50 (K562): > 100 µM (inactive)
GI50 (LOX IMVI): 48 µM (inactive)
GI50 (MOLT-4): > 75 µM (inactive)
GI50 (Malme-3M): > 75 µM (inactive)
GI50 (NCI-H23): > 100 µM (inactive) and 54.7 µM (inactive)
GI50 (RXF 393): > 75 µM (inactive)
GI50 (SF-268): > 100 µM (inactive)
GI50 (SF-539): 20.8 µM (inactive)
GI50 (SK-MEL-28): > 100 µM (inactive)
GI50 (SK-MEL-5): > 100 µM (inactive)
GI50 (SK-OV-3): > 75 µM (inactive)
